Where two headings read alike, the source gives them in different places.
How the values were obtained:
Experiment in all cases: Sensitivity test (agar dilution)
P. aeruginosa IFO3451 = format: cell-based, Pseudomonas aeruginosa; conditions: Pseudomonas aeruginosa, P. aeruginosa IFO3451
How it was run: (§1)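 Under the Japan Chemotherapeutic Society protocol, MIC was recorded as the lowest agar concentration, in twofold dilutions in MHA, preventing growth of about 10^6 CFU/ml inocula. FIC indices were derived for drug pairs.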

P. aeruginosa TL-2667 = format: cell-based, Pseudomonas aeruginosa; conditions: Pseudomonas aeruginosa, P. aeruginosa TL-2667
How it was run: as §1

P. aeruginosa TL-2666 = format: cell-based, Pseudomonas aeruginosa; conditions: Pseudomonas aeruginosa, P. aeruginosa TL-2666
How it was run: as §1

C. freundii GN346 = format: cell-based, Citrobacter freundii; conditions: Citrobacter freundii, C. freundii GN346
How it was run: as §1

[1] = test system: S. aureus MS94088 (hetero-MRSA); format: cell-based, Staphylococcus aureus; conditions: Staphylococcus aureus, MRSA, S. aureus MS94088 (hetero-MRSA)
How it was run: as §1

S. aureus 209P = format: cell-based, Staphylococcus aureus; conditions: Staphylococcus aureus, 209P, S. aureus 209P
How it was run: as §1

[2] = test system: S. aureus SP-7928 (homo-MRSA); format: cell-based, Staphylococcus aureus; conditions: Staphylococcus aureus, MRSA, S. aureus SP-7928 (homo-MRSA)
How it was run: as §1

K. pneumoniae ATCC10031 = format: cell-based, Klebsiella pneumoniae; conditions: Klebsiella pneumoniae, K. pneumoniae ATCC10031
How it was run: as §1

M. luteus ATCC9341 = format: cell-based, Micrococcus luteus; conditions: Micrococcus luteus, M. luteus ATCC9341
How it was run: as §1

M. catarrhalis ATCC8176 = format: cell-based, Moraxella catarrhalis; conditions: Moraxella catarrhalis, M. catarrhalis ATCC8176
How it was run: as §1

M. catarrhalis ATCC25238 = format: cell-based, Moraxella catarrhalis; conditions: Moraxella catarrhalis, M. catarrhalis ATCC25238
How it was run: as §1

S. maltophilia IID1275 = format: cell-based, Stenotrophomonas maltophilia; conditions: Stenotrophomonas maltophilia, S. maltophilia IID1275
How it was run: as §1

E. aerogenes ATCC13048 = format: cell-based, Enterobacter aerogenes; conditions: Klebsiella aerogenes, E. aerogenes ATCC13048
How it was run: as §1

[3] = IFO3451, drug alone, read-out: MIC alone
[4] = TL2667, drug alone, read-out: MIC alone
[5] = TL2666, drug alone, read-out: MIC alone
[6] = GN346, drug alone, read-out: MIC alone
[7] = Concomitant (PAPM:SM = 1:1), read-out: MIC concomitant
[8] = drug alone, read-out: MIC alone
[9] = ATCC10031, drug alone, read-out: MIC alone
[10] = ATCC9341, drug alone, read-out: MIC alone
[11] = ATCC8176, drug alone, read-out: MIC alone
[12] = ATCC25238, drug alone, read-out: MIC alone
[13] = IID1275, drug alone, read-out: MIC alone
[14] = ATCC13048, drug alone, read-out: MIC alone
[15] = Concomitant (PIPC:SM = 1:1), read-out: MIC concomitant

Row | Structure (SMILES) | MIC (P. aeruginosa IFO3451; [3]) [µg/mL] | MIC (P. aeruginosa TL-2667; [4]) [µg/mL] | MIC (P. aeruginosa TL-2666; [5]) [µg/mL] | MIC (C. freundii GN346; [6]) [µg/mL] | MIC [1, 8] [µg/mL] | MIC (S. aureus 209P; [8]) [µg/mL] | MIC [2, 8] [µg/mL] | MIC (K. pneumoniae ATCC10031; [9]) [µg/mL] | MIC (M. luteus ATCC9341; [10]) [µg/mL] | MIC (M. catarrhalis ATCC8176; [11]) [µg/mL] | MIC (M. catarrhalis ATCC25238; [12]) [µg/mL] | MIC (S. maltophilia IID1275; [13]) [µg/mL] | MIC (E. aerogenes ATCC13048; [14]) [µg/mL] | other results
1 | CC(=N)N1CC[C@H](SC2=C(C(=O)O)N3C(=O)[C@H]([C@@H](C)O)[C@H]3C2)C1 [PAPM, panipenem] | 4 | 16 | 8 | 0.5 | 0.5 | 0.031 | > 32 | 0.125 | 0.031 | 0.008 | 0.008 | > 32 | 0.5 | MIC (P. aeruginosa IFO3451; IFO3451, Concomitant (PAPM:SM = 1:1), read-out: MIC concomitant): 2 µg/mL; MIC (P. aeruginosa TL-2667; TL2667, Concomitant (PAPM:SM = 1:1), read-out: MIC concomitant): 16 µg/mL; MIC (P. aeruginosa TL-2666; TL2666, Concomitant (PAPM:SM = 1:1), read-out: MIC concomitant): 8 µg/mL; MIC (C. freundii GN346; GN346, Concomitant (PAPM:SM = 1:1), read-out: MIC concomitant): 0.25 µg/mL; MIC [1, 7]: 0.25 µg/mL; MIC (S. aureus 209P; [7]): 0.004 µg/mL; MIC [2, 7]: 2 µg/mL; MIC (K. pneumoniae ATCC10031; ATCC10031, Concomitant (PAPM:SM = 1:1), read-out: MIC concomitant): 0.016 µg/mL; MIC (M. luteus ATCC9341; ATCC9341, Concomitant (PAPM:SM = 1:1), read-out: MIC concomitant): ≤ 0.002 µg/mL; MIC (M. catarrhalis ATCC8176; ATCC8176, Concomitant (PAPM:SM = 1:1), read-out: MIC concomitant): ≤ 0.002 µg/mL; MIC (M. catarrhalis ATCC25238; ATCC25238, Concomitant (PAPM:SM = 1:1), read-out: MIC concomitant): ≤ 0.002 µg/mL; MIC (S. maltophilia IID1275; IID1275, Concomitant (PAPM:SM = 1:1), read-out: MIC concomitant): > 32 µg/mL; MIC (E. aerogenes ATCC13048; ATCC13048, Concomitant (PAPM:SM = 1:1), read-out: MIC concomitant): 0.25 µg/mL
2 | CCN1CCN(C(=O)N[C@@H](C(=O)N[C@@H]2C(=O)N3[C@@H]2SC(C)(C)[C@@H]3C(=O)O)c2ccccc2)C(=O)C1=O [PIPC, piperacillin] | 4 | 2 | 1 | 1 | > 32 | 0.25 | > 32 | 0.25 | 0.031 | 0.016 | 0.008 | > 32 | 4 | MIC (P. aeruginosa IFO3451; IFO3451, Concomitant (PIPC:SM = 1:1), read-out: MIC concomitant): 8 µg/mL; MIC (P. aeruginosa TL-2667; TL2667, Concomitant (PIPC:SM = 1:1), read-out: MIC concomitant): 16 µg/mL; MIC (P. aeruginosa TL-2666; TL2666, Concomitant (PIPC:SM = 1:1), read-out: MIC concomitant): 16 µg/mL; MIC (C. freundii GN346; GN346, Concomitant (PIPC:SM = 1:1), read-out: MIC concomitant): 8 µg/mL; MIC [1, 15]: 0.125 µg/mL; MIC (S. aureus 209P; [15]): 0.004 µg/mL; MIC [2, 15]: 1 µg/mL; MIC (K. pneumoniae ATCC10031; ATCC10031, Concomitant (PIPC:SM = 1:1), read-out: MIC concomitant): 0.016 µg/mL; MIC (M. luteus ATCC9341; ATCC9341, Concomitant (PIPC:SM = 1:1), read-out: MIC concomitant): ≤ 0.002 µg/mL; MIC (M. catarrhalis ATCC8176; ATCC8176, Concomitant (PIPC:SM = 1:1), read-out: MIC concomitant): ≤ 0.002 µg/mL; MIC (M. catarrhalis ATCC25238; ATCC25238, Concomitant (PIPC:SM = 1:1), read-out: MIC concomitant): ≤ 0.002 µg/mL; MIC (S. maltophilia IID1275; IID1275, Concomitant (PIPC:SM = 1:1), read-out: MIC concomitant): > 32 µg/mL; MIC (E. aerogenes ATCC13048; ATCC13048, Concomitant (PIPC:SM = 1:1), read-out: MIC concomitant): 8 µg/mL
